6 molecules from US4547503A, “1-Cyclopropyl-6-fluoro-1,4-dihydro-4-oxo-7-[4-(oxo-alkyl)-1-piperazinyl ]quinoline-3-carboxylic acids and their derivatives, and antibacterial agents containing them” (Bayer Aktiengesellschaft, priority 1982, dated 1985) can be followed below.

Common to all, as to assay: MIC, agar dilution test; Denley multipoint inoculation procedure
What all share (format): cell-based
(In general: Agar dilution tests growth on a series of plates holding different concentrations.)

Assay [1] relates to E. coli A 261. Conditions: Escherichia coli, A261, read-out: Minimum inhibitory concentration. The text has this:
(§1) In the table below, the minimum inhibitory concentrations (MIC) with a variety of bacteria for some of the compounds according to the invention are given. |Minimum inhibitory concentrations in mcg/ml in the agar dilution test;

Assay [2] has as its system E. coli Neumann. Conditions: Escherichia coli, read-out: Minimum inhibitory concentration.
Description: as §1

Assay [3] concerns Klebsiella 57 USA. Conditions: read-out: Minimum inhibitory concentration.
Description: as §1

The test system of assay [4] is Klebsiella 6179. Conditions: read-out: Minimum inhibitory concentration.
Description: as §1

The subject of assay [5] is Klebsiella 8085. Conditions: read-out: Minimum inhibitory concentration.
Description: as §1

The subject of assay [6] is Proteus morganii 932. The conditions noted are these: Morganella morganii, read-out: Minimum inhibitory concentration.
Description: as §1

Assay [7] concerns Providencia 12052. The conditions noted are these: read-out: Minimum inhibitory concentration.
Description: as §1

Assay [8] relates to Staphylococcus 133. Conditions: read-out: Minimum inhibitory concentration.
Description: as §1

The subject of assay [9] is Staphylococcus 1746. Conditions: read-out: Minimum inhibitory concentration.
Description: as §1

The subject of assay [10] is Staphylococcus Fk 422. Conditions: FK422, read-out: Minimum inhibitory concentration.
Description: as §1

The structures appear in SMILES notation. Converted amounts (≈) assume the structure as drawn.

Regarding `O=C(CN1CCN(c2cc3c(cc2F)c(=O)c(C(=O)O)cn3C2CC2)CC1)c1ccccc1` [Example 4], the MIC in assay [1] was not above 0.015 µg/mL; in assay [2], 0.03 µg/mL (≈ 0.0667 µM); in assay [3] it was 0.06 µg/mL (≈ 0.133 µM); in assay [4], 0.5 µg/mL (≈ 1.11 µM); in assay [5] it was 0.125 µg/mL (≈ 0.278 µM); in [6], not above 0.015 µg/mL. Also, the MIC was 128 µg/mL (≈ 285 µM) in assay [7], 2 µg/mL (≈ 4.45 µM) in assay [8], 1 µg/mL (≈ 2.22 µM) in [9] and 2 µg/mL (≈ 4.45 µM) in assay [10].
Consider `O=C(CN1CCN(c2cc3c(cc2F)c(=O)c(C(=O)O)cn3C2CC2)CC1)c1ccc(O)cc1O` [Example 5], for which the MIC in assay [8], in assay [9] and in assay [10] was 0.25 µg/mL (≈ 0.519 µM) each time.
As for `O=C(CN1CCN(c2cc3c(cc2F)c(=O)c(C(=O)O)cn3C2CC2)CC1)c1ccc(F)cc1` [Example 8], the MIC in assay [1] was not above 0.015 µg/mL; in assay [2], 0.015 µg/mL (≈ 0.0321 µM); in assay [3], 0.03 µg/mL (≈ 0.0642 µM); in [4], 0.25 µg/mL (≈ 0.535 µM); in assay [5], 0.03 µg/mL (≈ 0.0642 µM); in assay [6], not above 0.015 µg/mL. The MIC in [7] came to 64 µg/mL (≈ 137 µM); in [8] it was 1 µg/mL (≈ 2.14 µM); in assay [9], 1 µg/mL (≈ 2.14 µM); in assay [10], 1 µg/mL (≈ 2.14 µM).
`CC(=O)CCN1CCN(c2cc3c(cc2F)c(=O)c(C(=O)O)cn3C2CC2)CC1` [Example 12, 1-cyclopropyl-6-fluoro-1,4-dihydro-4-oxo-7-[4-(3-oxobutyl)-1-piperazinyl]quinoline-3-carboxylic acid]: the MIC in [1] is not above 0.015 µg/mL; in assay [2], not above 0.015 µg/mL; in assay [3], 0.06 µg/mL (≈ 0.149 µM); in assay [4], 0.25 µg/mL (≈ 0.623 µM); in assay [5], not above 0.015 µg/mL; in assay [6] it was not above 0.015 µg/mL. The MIC in [7] was determined as 32 µg/mL (≈ 79.7 µM); in assay [8], 0.5 µg/mL (≈ 1.25 µM); in [9] it was 0.5 µg/mL (≈ 1.25 µM); in assay [10], 0.5 µg/mL (≈ 1.25 µM).
For `CC(=O)CN1CCN(c2cc3c(cc2F)c(=O)c(C(=O)O)cn3C2CC2)CC1` [Example 1, 1-cyclopropyl-6-fluoro-1,4-dihydro-4-oxo-7-[4-(2-oxopropyl)-1-piperazinyl]quinoline-3-carboxylic acid], the MIC in assay [1] is not above 0.015 µg/mL; in assay [2], 0.06 µg/mL (≈ 0.155 µM); in [3], 1 µg/mL (≈ 2.58 µM); in assay [4] it was 2 µg/mL (≈ 5.16 µM); in assay [5] it was 0.06 µg/mL (≈ 0.155 µM); in [6], 0.06 µg/mL (≈ 0.155 µM). In addition, the MIC in assay [7] amounted to 128 µg/mL (≈ 330 µM); in assay [8], 0.25 µg/mL (≈ 0.645 µM); in assay [9] it was 0.25 µg/mL (≈ 0.645 µM); in [10], 0.25 µg/mL (≈ 0.645 µM).
As for `O=C(CN1CCN(c2cc3c(cc2F)c(=O)c(C(=O)O)cn3C2CC2)CC1)c1ccc(Cl)cc1` [Example 9], the MIC in assay [1] was not above 0.015 µg/mL; in assay [2], 0.03 µg/mL (≈ 0.062 µM); in assay [3] it was 0.5 µg/mL (≈ 1.03 µM); in assay [4] it was 1 µg/mL (≈ 2.07 µM); in assay [5] it was 0.125 µg/mL (≈ 0.258 µM); in assay [6], 0.03 µg/mL (≈ 0.062 µM). The MIC was more than 128 µg/mL in [7], 2 µg/mL (≈ 4.13 µM) in assay [8], 2 µg/mL (≈ 4.13 µM) in [9] and 2 µg/mL (≈ 4.13 µM) in [10].
